How the values were obtained:
Huh7 cells = conditions: at 10 μM, compared with vehicle control, n = 1
HCoV‐229E = experiment: microbe, parasite or virus in culture; type: cell-based; conditions: at 10 μM, compared with vehicle control, Huh7 cells, n = 1; for inhibition at 10 µM: Human coronavirus 229E, Huh-7, read-out: Protective effects HCoV-229E %

| Compound | Cytotoxicity to the host Huh7 cells % (Huh7 cells) | Protective effects HCoV-229E % (HCoV‐229E) | inhibition at 10 µM (HCoV‐229E) |
| --- | --- | --- | --- |
| O[C@H]1C=C[C@@]23c4cc5c(cc4CN(C[C@@H]2O)[C@H]3C1)OCO5 [Compound 2, (+)‐hamayne] | — (Non-toxic (insignificant cytotoxic effects, below 20%)) | — (Not active (insignificant protective effects below 20%)) | – |
| CO[C@@H]1C=C[C@@]23c4cc5c(cc4CN(C[C@@H]2O)[C@H]3C1)OCO5 [Compound 3, (+)‐haemanthamine] | 50% | – | 50% |
| COc1cc2c(cc1O)[C@@H]1[C@H](O)[C@@H](OC)C=C3CCN(C2)[C@H]31 [Compound 4, 9‐O‐demethylgalanthine] | — (Non-toxic (insignificant cytotoxic effects, below 20%)) | — (Not active (insignificant protective effects below 20%)) | – |
| CO[C@@H]1C=C[C@@]23c4cc5c(cc4CO[C@]2(O)CN(C)[C@H]3C1)OCO5 [Compound 5, (+)‐tazettine] | — (Non-toxic (insignificant cytotoxic effects, below 20%)) | — (Not active (insignificant protective effects below 20%)) | – |
| COc1cc2c(cc1OC)[C@@H](O)O[C@@H]1CC=C3CCN(C)[C@H]3[C@H]21 [Compound 7, lycorenine] | 20% | — (Not active (insignificant protective effects below 20%)) | – |
| CN1CCC2=CCC3OC(O)c4cc5c(cc4C3C21)OCO5 (stereo not shown) [Compound 8, oduline] | 20% | — (Not active (insignificant protective effects below 20%)) | – |
| O[C@H]1[C@H]2c3cc4c(cc3CN3CCC(=C[C@@H]1O)[C@H]23)OCO4 [Compound 9, lycorine] | — (Non-toxic (insignificant cytotoxic effects, below 20%)) | – | < 20% |
| COc1cc2c(cc1OC)[C@H]1[C@H]3C(=CC[C@H]1OC2=O)CCN3C [Compound 10, homolycorine] | — (Non-toxic (insignificant cytotoxic effects, below 20%)) | – | 40% |
| CN1CCC2=CC[C@H]3OC(=O)c4cc5c(cc4[C@H]3[C@@H]21)OCO5 [Compound 11, masonine] | — (Non-toxic (insignificant cytotoxic effects, below 20%)) | — (Not active (insignificant protective effects below 20%)) | – |
| CN1CCC2=C[C@H](O)[C@H]3OC(=O)c4cc5c(cc4[C@H]3[C@@H]21)OCO5 [Compound 12, hippeastrine] | 25% | — (Not active (insignificant protective effects below 20%)) | – |
| O[C@H]1C=C[C@@]23CCN(Cc4cc5c(cc42)OCO5)[C@@H]3C1 [Compound 14, (−)‐crinine] | — (Non-toxic (insignificant cytotoxic effects, below 20%)) | — (Not active (insignificant protective effects below 20%)) | – |
| O[C@@H]1CC=C2CCN3Cc4cc5c(cc4[C@H]1[C@@H]23)OCO5 [Compound 15, (−)‐caranine] | — (Non-toxic (insignificant cytotoxic effects, below 20%)) | — (Not active (insignificant protective effects below 20%)) | – |
| COc1cc2c(cc1Oc1c3c(cc(OC)c1OC)CCN(C)C3)C(Cc1ccc(O)cc1)N(C)CC2 (stereo not drawn) [Compound 20, (−)‐muraricine] | — (Non-toxic (insignificant cytotoxic effects, below 20%)) | 50% | – |
| COc1ccc2cc3n(c(=O)c2c1OC)CCc1cc2c(cc1-3)OCO2 [Compound 22, 8‐oxoberberine] | — (Non-toxic (insignificant cytotoxic effects, below 20%)) | — (Not active (insignificant protective effects below 20%)) | – |
| COc1cc2c(cc1OC)C1Cc3cc(OC)c(OC)cc3[C@H](C2)N1C [Compound 23, argemonine] | — (Non-toxic (insignificant cytotoxic effects, below 20%)) | — (Not active (insignificant protective effects below 20%)) | – |
| (+)‐thalictricavine [Compound 27] | – | — (Not active (insignificant protective effects below 20%)) | – |

Reference: article PMC12497685, “Anticoronavirus Isoquinoline Alkaloids: Unraveling the Secrets of Their Structure–Activity Relationship” (Influenza and Other Respiratory Viruses, 2025)
